From US9718823B2, “2, 6-Di-nitrogen-containing substituted purine derivative, and preparation method, pharmaceutical composition and use thereof” (Zhejiang Medicine Co., Ltd. Xinchang Pharmaceutical Factory, priority 2013, dated 2017)

Legend:
Format in all cases: biochemical
PDGFR β enzyme = molecular target: T1, PDGFR β enzyme (Homo sapiens, UniProt P09619); assay: Inhibitory activity to PDGFR β enzyme, HTRF kinEASE TK kit; conditions: read-out: Inhibition rate % (PDGFR β)
T1 construct: purchased Invitrogen P3082
Procedure: HTRF kinEASE TK (Cat.62TK0PEC, Cisbio)
PDGFR β enzyme (Cat.P3082, Invitrogen)
1 mL 1×Kinase Buffer includes 200 μL 5×Enzyme buffer, 5 μL 1M MgCl2, 1 μL 1M DTT, 1 μL 1M MnCl2, 20 μL 2500 nM SEB, 773 μL ddH2O.
TK-Substrate and ATP are diluted to 2.5 times of reaction concentration with 1×PDGFR β Kinase Buffer.
5×PDGFR β enzyme working solution is prepared with 1×PDGFR β kinase buffer.
4×Sa-XL665 working solution is prepared with Detection Buffer.
TK-Ab-Cryptate is diluted 100 times with Detection Buffer to use as working solution.

PI3K α = molecular target: T2, PI3K α (Homo sapiens, UniProt P42336); assay: Inhibitory activity to PI3K α, PI 3-Kinase (human) HTRF Assay kit; conditions: read-out: % Inhibition Rate to PI3K α
T2 construct: purchased Millipore 14-602
Description: (§1) Study on the inhibitory activity of the compounds of present invention to PI 3κα, PI3κδ and PI3κγ. Two or three concentrations of the compounds are selected to preliminary screening to calculate respectively the activity inhibition rate of the compounds of corresponding concentrations to enzyme, then the compounds with better activity are selected by preliminary screening for IC50 test.
(§2) PI 3-Kinase (human) HTRF™ Assay kit (Cat.33-017, Millipore)
PI 3k α (Cat.14-602, Millipore)
(§3) 4× Reaction Buffer (Cat.33-002, Millipore) is diluted with ddH2O to 1.33×, and 1M DTT is added to make the final concentration as 6.67 mM. For example, 10 μL DTT is added into 500 μL 4× Reaction Buffer, and water is added to 1.5 mL.
(§4) The Test compounds are dissolved with DMSO to 1 mM as storage liquid. 2 μL of each of storage liquid is added into 48 μL ddH2O, to obtain the 40 μM compounds solution containing 4% DMSO. After mixing, 3 μL of each of the solution is added into 27 μL 4% DMSO (in ddH2O) to obtain the 4 μM compounds solution. 5 μL of each dilute solution is added into 384-well plates, then the final concentration of the compounds in the 20 μL final kinase reaction system is 10 μM and 1 μM respectively contained 1% DMSO. The dilution methods of compounds are similar to the preliminary screening in IC50 test.
(§5) 2×PIP2 working fluid is prepared with 1.33× reaction buffer to the final concentration of 20 μM.
The screening concentration of PI 3k α kinase: 8 ng/well,
(§6) Kinase is diluted with 2×PIP2 operating fluid, the concentration of kinase operating fluid is 2 times of screening concentration.
(§7) 10 mM ATP is diluted with 1.33× reaction buffer to 400 μM. The concentration of ATP is 100 μM in 20 μL kinase reaction system.
(§8) Stop A and Stop B are mixed according to the proportion of 3:1, and are placed for 2 hours at room temperature to obtain the stop solution available.
(§9) DM C, DM A and DM B are mixed according to the proportion of 18:1:1, and are placed for 2 hours at room temperature to obtain the detection solution available.

PI3 K γ = molecular target: T3, PI3 K γ (Homo sapiens, UniProt P48736); assay: Inhibitory activity to PI3K γ, PI 3-Kinase (human) HTRF Assay kit; conditions: read-out: Inhibition rate % to PI3 K γ
T3 construct: purchased Biology, Medicilon
Description: as §1, §2
PI 3k γ (Biology, Medicilon)
as §3, §4, §5
The screening concentration of PI 3k γ kinase: 80 ng/well,
as §6, §7, §8, §9

PI3Kδ = molecular target: T4, PI3Kδ (Homo sapiens, UniProt O00329); assay: Inhibitory activity to PI3K δ, PI 3-Kinase (human) HTRF Assay kit; conditions: read-out: Inhibition rate % to PI3Kδ; for inhibition at 1 µM: 1 μM (Table 7); for inhibition at 10 µM: 10 μM (Table 7)
T4 construct: purchased Millipore 14-604
Procedure: Study on the inhibitory activity of the compounds of present invention to PI 3κα, PI3κδ and PI3κγ.
as §2
For example, 10 μL DTT is added into 500 μL 4× Reaction Buffer, and water is added to 1.5 mL.
The Test compounds are dissolved with DMSO to 1 mM as storage liquid. 2 μL of each of storage liquid is added into 48 μL ddH2O, to obtain the 40 μM compounds solution containing 4% DMSO. After mixing, 3 μL of each of the solution is added into 27 μL 4% DMSO (in ddH2O) to obtain the 4 μM compounds solution. […]
The screening concentration of PI 3k δ kinase: 2 ng/well,
as §6
The concentration of ATP is 100 μM in 20 μL kinase reaction system.
as §8, §9

T4 sequence (O00329 whole entry): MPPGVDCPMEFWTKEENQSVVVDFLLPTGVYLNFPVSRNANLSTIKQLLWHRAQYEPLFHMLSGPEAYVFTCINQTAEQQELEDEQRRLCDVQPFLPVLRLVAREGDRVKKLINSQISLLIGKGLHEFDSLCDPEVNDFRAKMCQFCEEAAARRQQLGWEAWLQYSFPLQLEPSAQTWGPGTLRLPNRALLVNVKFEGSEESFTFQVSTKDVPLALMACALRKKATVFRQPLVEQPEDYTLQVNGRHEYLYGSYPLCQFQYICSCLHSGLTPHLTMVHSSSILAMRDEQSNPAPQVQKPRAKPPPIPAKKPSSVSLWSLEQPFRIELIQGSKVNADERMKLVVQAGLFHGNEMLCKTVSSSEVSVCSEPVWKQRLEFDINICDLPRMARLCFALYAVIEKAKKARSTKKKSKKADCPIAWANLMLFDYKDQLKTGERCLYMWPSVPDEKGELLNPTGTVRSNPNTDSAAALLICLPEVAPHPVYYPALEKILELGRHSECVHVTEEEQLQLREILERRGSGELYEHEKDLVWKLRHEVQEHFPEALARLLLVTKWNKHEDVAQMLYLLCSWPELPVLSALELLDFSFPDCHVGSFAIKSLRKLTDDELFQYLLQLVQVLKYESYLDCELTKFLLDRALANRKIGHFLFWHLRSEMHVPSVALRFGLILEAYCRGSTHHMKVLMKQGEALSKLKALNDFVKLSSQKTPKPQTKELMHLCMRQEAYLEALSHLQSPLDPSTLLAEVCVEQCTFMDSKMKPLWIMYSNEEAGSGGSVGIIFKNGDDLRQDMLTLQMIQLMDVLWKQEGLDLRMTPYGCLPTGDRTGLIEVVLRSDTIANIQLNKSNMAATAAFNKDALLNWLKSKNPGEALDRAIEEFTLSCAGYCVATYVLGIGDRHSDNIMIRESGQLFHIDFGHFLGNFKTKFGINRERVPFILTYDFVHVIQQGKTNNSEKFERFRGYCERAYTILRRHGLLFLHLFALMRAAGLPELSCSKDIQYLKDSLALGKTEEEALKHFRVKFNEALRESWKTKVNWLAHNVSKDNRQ
T4 sequence (P27986 whole entry partner): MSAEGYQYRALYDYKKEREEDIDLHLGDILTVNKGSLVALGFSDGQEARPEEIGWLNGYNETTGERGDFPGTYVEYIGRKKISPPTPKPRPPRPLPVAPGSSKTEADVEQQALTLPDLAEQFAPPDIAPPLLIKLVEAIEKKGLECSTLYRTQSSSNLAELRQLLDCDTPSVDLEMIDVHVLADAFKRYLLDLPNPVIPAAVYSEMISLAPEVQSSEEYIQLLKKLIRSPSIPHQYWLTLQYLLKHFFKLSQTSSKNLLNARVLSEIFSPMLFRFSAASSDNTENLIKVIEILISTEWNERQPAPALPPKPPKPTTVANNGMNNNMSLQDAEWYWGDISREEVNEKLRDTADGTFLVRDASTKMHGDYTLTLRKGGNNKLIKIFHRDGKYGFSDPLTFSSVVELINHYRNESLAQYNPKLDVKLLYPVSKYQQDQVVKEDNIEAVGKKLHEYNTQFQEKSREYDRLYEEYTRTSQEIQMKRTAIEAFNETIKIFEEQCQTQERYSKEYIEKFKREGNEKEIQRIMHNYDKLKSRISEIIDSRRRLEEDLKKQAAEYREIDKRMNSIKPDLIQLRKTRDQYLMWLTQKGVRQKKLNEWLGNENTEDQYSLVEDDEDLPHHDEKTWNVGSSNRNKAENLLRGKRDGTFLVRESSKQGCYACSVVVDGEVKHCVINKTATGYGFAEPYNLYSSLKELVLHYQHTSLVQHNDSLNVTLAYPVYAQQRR
T2 sequence (P42336 whole entry): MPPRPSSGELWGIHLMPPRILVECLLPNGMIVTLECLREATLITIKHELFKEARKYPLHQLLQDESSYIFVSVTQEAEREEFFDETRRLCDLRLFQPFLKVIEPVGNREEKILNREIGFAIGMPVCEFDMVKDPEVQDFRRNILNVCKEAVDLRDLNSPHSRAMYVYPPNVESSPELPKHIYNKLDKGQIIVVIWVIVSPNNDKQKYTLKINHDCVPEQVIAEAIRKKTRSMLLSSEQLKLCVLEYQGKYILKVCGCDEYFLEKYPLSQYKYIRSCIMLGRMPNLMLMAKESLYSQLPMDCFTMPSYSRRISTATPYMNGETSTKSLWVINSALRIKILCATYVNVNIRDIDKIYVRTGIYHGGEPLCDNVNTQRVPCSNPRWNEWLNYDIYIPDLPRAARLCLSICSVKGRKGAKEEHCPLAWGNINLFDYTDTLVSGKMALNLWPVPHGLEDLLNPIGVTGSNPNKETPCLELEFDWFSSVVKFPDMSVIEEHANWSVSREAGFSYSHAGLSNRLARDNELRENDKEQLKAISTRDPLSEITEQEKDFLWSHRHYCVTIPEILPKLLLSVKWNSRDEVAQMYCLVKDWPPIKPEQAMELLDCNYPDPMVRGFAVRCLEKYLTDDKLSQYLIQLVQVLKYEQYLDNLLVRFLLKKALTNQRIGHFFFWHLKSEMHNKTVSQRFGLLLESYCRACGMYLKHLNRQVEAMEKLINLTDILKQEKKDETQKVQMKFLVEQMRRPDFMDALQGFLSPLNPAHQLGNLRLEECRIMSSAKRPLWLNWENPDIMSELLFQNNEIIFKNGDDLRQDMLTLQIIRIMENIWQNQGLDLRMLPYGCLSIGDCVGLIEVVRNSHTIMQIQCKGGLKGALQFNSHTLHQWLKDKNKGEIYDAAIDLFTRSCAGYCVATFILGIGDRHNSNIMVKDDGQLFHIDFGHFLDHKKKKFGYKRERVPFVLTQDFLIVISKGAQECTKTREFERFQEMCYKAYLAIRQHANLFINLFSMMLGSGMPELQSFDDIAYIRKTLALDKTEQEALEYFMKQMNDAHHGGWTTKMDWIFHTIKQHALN
T2 sequence (P27986 whole entry partner): as the sequence (P27986 whole entry partner) above
T1 sequence (P09619 33-1106): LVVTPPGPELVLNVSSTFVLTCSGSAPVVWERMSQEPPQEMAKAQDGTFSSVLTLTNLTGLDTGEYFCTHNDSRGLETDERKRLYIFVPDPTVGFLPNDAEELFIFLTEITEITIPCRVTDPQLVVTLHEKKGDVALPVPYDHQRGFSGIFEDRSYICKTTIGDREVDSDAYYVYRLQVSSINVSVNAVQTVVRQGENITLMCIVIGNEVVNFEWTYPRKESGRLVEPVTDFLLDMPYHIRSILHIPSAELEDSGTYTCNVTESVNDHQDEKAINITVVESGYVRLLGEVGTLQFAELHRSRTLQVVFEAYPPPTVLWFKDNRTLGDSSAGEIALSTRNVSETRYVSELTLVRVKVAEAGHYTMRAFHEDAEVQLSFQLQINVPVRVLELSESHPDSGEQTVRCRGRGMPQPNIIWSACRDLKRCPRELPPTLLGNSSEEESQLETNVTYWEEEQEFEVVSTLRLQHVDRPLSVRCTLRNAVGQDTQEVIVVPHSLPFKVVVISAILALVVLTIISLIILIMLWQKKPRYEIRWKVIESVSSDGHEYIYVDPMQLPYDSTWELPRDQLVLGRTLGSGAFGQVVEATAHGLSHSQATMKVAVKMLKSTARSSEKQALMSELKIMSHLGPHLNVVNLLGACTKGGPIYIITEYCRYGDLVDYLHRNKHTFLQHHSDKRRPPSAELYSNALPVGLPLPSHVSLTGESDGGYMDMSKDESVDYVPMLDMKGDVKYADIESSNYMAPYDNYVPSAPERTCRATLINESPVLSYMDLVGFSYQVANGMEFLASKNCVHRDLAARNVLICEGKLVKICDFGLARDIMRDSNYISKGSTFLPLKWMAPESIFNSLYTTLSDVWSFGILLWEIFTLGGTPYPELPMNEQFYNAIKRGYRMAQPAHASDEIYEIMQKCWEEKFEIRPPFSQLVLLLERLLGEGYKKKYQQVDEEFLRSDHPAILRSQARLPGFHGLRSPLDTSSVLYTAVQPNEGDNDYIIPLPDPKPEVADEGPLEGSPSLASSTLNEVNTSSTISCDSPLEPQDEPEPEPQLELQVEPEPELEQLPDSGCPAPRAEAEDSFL
T3 sequence (P48736 whole entry): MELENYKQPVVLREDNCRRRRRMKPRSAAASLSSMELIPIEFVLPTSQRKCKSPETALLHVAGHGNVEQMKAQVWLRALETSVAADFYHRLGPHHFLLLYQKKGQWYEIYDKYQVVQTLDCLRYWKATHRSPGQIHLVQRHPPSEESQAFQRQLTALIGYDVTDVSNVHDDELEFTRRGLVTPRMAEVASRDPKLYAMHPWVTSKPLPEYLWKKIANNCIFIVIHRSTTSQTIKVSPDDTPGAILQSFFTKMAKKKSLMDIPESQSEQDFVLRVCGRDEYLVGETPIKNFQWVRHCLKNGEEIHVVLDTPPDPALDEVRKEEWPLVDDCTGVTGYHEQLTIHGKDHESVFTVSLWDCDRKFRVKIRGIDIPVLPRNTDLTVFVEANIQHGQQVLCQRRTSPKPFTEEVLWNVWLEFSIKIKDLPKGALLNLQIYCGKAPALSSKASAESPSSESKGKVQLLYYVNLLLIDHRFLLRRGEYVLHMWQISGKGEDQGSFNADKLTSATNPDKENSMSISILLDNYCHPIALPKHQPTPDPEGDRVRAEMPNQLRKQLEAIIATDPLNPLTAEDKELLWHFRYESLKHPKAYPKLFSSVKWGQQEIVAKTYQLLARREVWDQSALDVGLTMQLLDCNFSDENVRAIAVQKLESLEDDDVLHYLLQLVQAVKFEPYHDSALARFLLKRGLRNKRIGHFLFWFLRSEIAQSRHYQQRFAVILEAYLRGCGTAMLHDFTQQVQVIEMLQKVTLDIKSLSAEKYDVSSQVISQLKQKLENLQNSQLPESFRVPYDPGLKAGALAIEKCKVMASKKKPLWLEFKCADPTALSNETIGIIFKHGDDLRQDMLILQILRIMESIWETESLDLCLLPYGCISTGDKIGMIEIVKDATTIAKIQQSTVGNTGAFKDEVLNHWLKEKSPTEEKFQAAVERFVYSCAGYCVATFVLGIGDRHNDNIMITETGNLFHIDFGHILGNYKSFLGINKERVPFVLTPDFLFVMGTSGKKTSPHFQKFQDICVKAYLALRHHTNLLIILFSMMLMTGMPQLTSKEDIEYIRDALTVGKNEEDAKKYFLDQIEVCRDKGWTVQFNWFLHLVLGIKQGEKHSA

SMILES | inhibition at 1 µM (PDGFR β enzyme) | inhibition at 10 µM (PDGFR β enzyme) | inhibition at 1 µM (PI3K α) | inhibition at 10 µM (PI3K α) | inhibition at 1 µM (PI3 K γ) | inhibition at 10 µM (PI3 K γ) | inhibition at 1 µM (PI3Kδ) | inhibition at 10 µM (PI3Kδ)
COc1ccccc1-c1ccnc2ccc(Nc3nc(NC4CC4)c4nc[nH]c4n3)cc12 [MED1007-86, N6-cyclopropyl-N2-(4-(2-methoxyphenyl)quinoline-6-yl)-9H-purine-2,6-diamine] | -5.49% | -3.13% | 19.2% | 39.6% | 8.35% | 23.1% | 27.3% | 66.4%
COc1ccc(-c2ccnc3ccc(Nc4nc(NC5CC5)c5nc[nH]c5n4)cc23)cc1OC [MED1007-84, N6-cyclopropyl-N2-(4-(3,4-dimethoxyphenyl)quinoline-6-yl)-9H-purine-2,6-diamine] | -8.59% | 13.4% | 58.7% | 99.2% | 26.6% | 34.2% | 71.8% | 101%
CSc1cccc(-c2ccnc3ccc(Nc4nc(NC5CC5)c5nc[nH]c5n4)cc23)c1 [MED1007-88, N6-cyclopropyl-N2-(4-(3-(methylthio)phenyl)quinoline-6-yl)-9H-purine-2,6-diamine] | -5.37% | 2.89% | 46.2% | 110% | 7.02% | 41.5% | 31% | 103%
c1ccc(-c2ccnc3ccc(Nc4nc(OC5CCCCC5)c5nc[nH]c5n4)cc23)cc1 [MED1007-107, N-(6-cyclohexyloxy-9H-purine-2-yl)-4-phenyl quinoline-6-amine] |  |  | 29.9% | 65.8% |  |  | 29.3% | 119%
CCOc1cccc(-c2ccnc3ccc(Nc4nc(NC5CC5)c5nc[nH]c5n4)cc23)c1 [MED1007-83, N6-cyclopropyl-N2-(4-(3-ethoxyphenyl)quinoline-6-yl)-9H-purine-2,6-diamine] | 4.5% | 7.6% | 36.2% | 87.6% | 5.93% | 24% | 22.7% | 68.5%
CSc1ccccc1-c1ccnc2ccc(Nc3nc(NC4CC4)c4nc[nH]c4n3)cc12 [MED1007-87, N6-cyclopropyl-N2-(4-(2-(methylthio)phenyl)quinoline-6-yl)-9H-purine-2,6-diamine] | -7.6% | -4.13% | 13.8% | 60.6% | -3.76% | 29.5% | 23% | 80%
c1cc(-c2ccc3c(c2)OCO3)c2cc(Nc3nc(NC4CC4)c4nc[nH]c4n3)ccc2n1 [MED1007-85, N2-(4-(benzo[1,3]-dioxole-5-yl)quinoline-6-yl)-N6-cyclopropane-9H-purine-2,6-diamine] | -3.44% | 29.8% | 66.2% | 90.1% | 16.8% | 41.9% | 54.1% | 113%
FC(F)(F)Cn1cnc2c(NC3CC3)nc(Nc3ccc4nccc(-c5ccccc5)c4c3)nc21 [MED1007-65, N6-cyclopropyl-N2-(4-phenylquinoline-6-yl)-9-(2,2,2-trifluoroethyl)-9H-purine-2,6-diamine] | 21.5% | 14% | 0.69% | 10.2% | 1.54% | 37.2% | 7.48% | 38.4%
c1cnc2ccc(Nc3nc(OC4CCC4)c4nc[nH]c4n3)cc2c1 [MED1007-97] | 98.4% | 99.5% | 56.3% | 114% | 74.7% | 77% | 72.3% | 88.5%
c1ccc(Oc2nc(Nc3ccc4nccc(N5CCNCC5)c4c3)nc3[nH]cnc23)cc1 [MED1007-54, N-(6-phenoxy-9H-purine-2-yl)-4-(piperazine-1-yl) quinoline-6-amine] | 7.3% | 43.7% |  |  | -6.81% | -4.67% | 13.3% | 42.4%

More lines, now with the values ahead:

inhibition at 1 µM (PDGFR β enzyme) | inhibition at 10 µM (PDGFR β enzyme) | inhibition at 1 µM (PI3K α) | inhibition at 10 µM (PI3K α) | inhibition at 1 µM (PI3 K γ) | inhibition at 10 µM (PI3 K γ) | inhibition at 1 µM (PI3Kδ) | inhibition at 10 µM (PI3Kδ) | SMILES
38.1% | 37.8% | 102% | 118% | 32.8% | 105% | 71.1% | 105% | c1ccc(-c2ccnc3ccc(Nc4nc(OC5CCC5)c5nc[nH]c5n4)cc23)cc1 [MED1007-98]
33.1% | 9.88% | 23.3% | 88.3% | 4.68% | 39.9% | 7.67% | 88.1% | c1ccc(-c2ccnc3ccc(Nc4nc(NCC5CCCC5)c5nc[nH]c5n4)cc23)cc1 [MED1007-99, N6-(cyclopentylmethyl)-N2-(4-phenylquinoline-6-yl)-9H-purine-2,6-diamine]
17% | 35% | 29.7% | 66.1% | 5.49% | 28.4% | 6.41% | 66.5% | OCCCNc1nc(Nc2ccc3nccc(-c4ccccc4)c3c2)nc2[nH]cnc12 [MED1007-73, 3-(2-(4-phenylquinoline-6-ylamino)-9H-purine-6-ylamino) propyl-1-ol]
 |  | 24.4% | 97.4% |  |  | 32.9% | 89.1% | c1ccc(-c2ccnc3ccc(Nc4nc(NC5CCCC5)c5nc[nH]c5n4)cc23)cc1 [MED1007-106, N6-cyclopentyl-N2-(4-phenylquinoline-6-yl)-9H-purine-2,6-diamine]
18.7% | 11.7% | 7.74% | 51.9% | -0.02% | 10.8% | 20.7% | 42.3% | COCCNc1nc(Nc2ccc3nccc(-c4ccccc4)c3c2)nc2[nH]cnc12 [MED1007-68, N6-(2-methoxyethyl)-N2-(4-phenylquinoline-6-yl)-9H-purine-2,6-diamine]
11.7% | 31.8% | 38.8% | 78.2% | 1.27% | 21.1% | 28.9% | 36.4% | OCCNc1nc(Nc2ccc3nccc(-c4ccccc4)c3c2)nc2[nH]cnc12 [MED1007-69, 2-(2-(4-phenylquinoline-6-ylamino)-9H-purine-6-ylamino) ethanol]
